# Peptide text beside a SMILES is read from it.
smiles,measurement,value
O=C(C=CC(=O)c1ccccc1)c1ccccc1,logP,3.16
CCC(=O)C1(c2cccc(OC(=O)CC(C)(C)C)c2)CCN(C)CC1,logP,3.17
CN(C)C(=O)Nc1ccc(Cl)cc1,logP,1.94
CCCN1CCCC[C@H]1C(=O)Nc1c(C)cccc1C,logP,2.9
OCc1ccc2c(c1)OCO2,logP,1.05
CNC(=O)Oc1cccc2c1OC(C)(C)C2,logP,2.32
CC(=O)NC(=O)C1CCC1,logP,-0.4
CCCCCc1cc(OC)c(CC(C)N)cc1OC (stereo not given),logP,4.43
CC(C)c1ccccc1N,logP,2.12
NC(=O)CCCc1ccccc1,logP,1.41
CC[C@H](C)[C@H](NC(=O)[C@@H](NC(C)=O)C(C)C)C(=O)NCC(N)=O (Ac-Val-Ile-Gly-NH2),logP,-0.45
Clc1cccc(-c2ccccc2)c1,logP,4.58
CC(=O)Oc1ccccc1C,logP,1.93
CCC1=Nc2ccc(Cl)cc2S(=O)(=O)N1,logP,1.62
COc1cc2c(c3c1c(=O)c1ccccc1n3C)C=CC(C)(C)O2,logP,3.67
CCC(C)c1cccc(C(C)C)c1O (stereo not given),logP,3.85
CC(O)C(F)(F)F (stereo not given),logP,0.71
CCCCSCS(=O)CC(C)NC(=O)C=Cc1c(C)[nH]c(=O)[nH]c1=O (stereo not given),logP,0.82
COP(=S)(OC)Oc1ccc([N+](=O)[O-])c(C)c1,logP,3.3
COc1c(O)c(OC)c(Cl)c(Cl)c1Cl,logP,3.74
Cc1cc([N+](=O)[O-])cc2c1NC(=O)CN=C2c1ccccc1,logP,2.44
CCOP(=S)(OCC)SCSCC,logP,3.56
C=CCN(CC=C)CC=C,logP,2.59
NC=O,logP,-1.51
c1ccc2c(c1)CCCN2,logP,2.29
CCCCC(CC)COP(=O)(Oc1ccccc1)Oc1ccccc1 (stereo not given),logP,5.73
CCOC(=O)C(=Cc1ccccc1C)C(=O)OCC,logP,3.22
CC(=O)Nc1cc(C(=O)NN)ccn1,logP,-1.25
CCOC(=O)c1ccncc1,logP,1.43
CCC(=O)OC1(C(=O)CCl)C(C)CC2C3CCC4=CC(=O)C=CC4(C)C3(F)C(=O)CC21C (stereo not given),logP,3.46
CCN=C=S,logP,1.47
Clc1c(Cl)c(Cl)c2n[nH]nc2c1Cl,logP,4.17
CC12CCC(=O)C=C1CCC1C2C(O)CC2(C)C1CCC2(O)C(=O)COC1OC(CO)C(O)C(O)C1O (stereo not given),logP,0.15
O=Cc1cccc(Oc2ccccc2)c1,logP,3.38
Nc1nnc(Cc2ccccc2)o1,logP,0.95
CC(=O)Oc1ccc(N)cc1,logP,0.45
CC(=O)OC1CCCCC1NC(=O)N(CCCl)N=O (stereo not given),logP,1.98
Nc1nc2cc(Cl)ccc2[nH]1,logP,1.88
O=C(Nc1ccn(C2OC(CO)C(O)C2O)c(=O)n1)c1ccccc1 (stereo not given),logP,0.3
CCOC(=O)C(=Cc1ccc(Cl)cc1)C(C)=O,logP,3.04
CC(=O)N[C@H](C(=O)N[C@@H](Cc1ccccc1)C(=O)N[C@@H](C)C(N)=O)C(C)C (Ac-Val-Phe-Ala-NH2),logP,0.06
CCCNC(=O)c1[nH]nc(C)c1[N+](=O)[O-],logP,0.65
CC1=NCCN1CCO,logP,0.04
Cc1nnc2n1-c1sc(Br)cc1C(c1ccccc1Cl)=NC2,logP,2.79
CCCC(=NOCC)C1C(=O)CC2(CCCCC2)OC1=O (stereo not given),logP,3.62
CC1(C)O[C@@H]2C[C@H]3[C@@H]4CCC5=CC(=O)C=C[C@]5(C)[C@@]4(F)[C@@H](O)C[C@]3(C)[C@]2(C(=O)CO)O1,logP,2.53
Cn1c([N+](=O)[O-])cnc1-c1nc2ccccc2n1CCCN1CCOCC1,logP,1.8
CCc1ccc2c(c1)C(=O)c1ccc(NC(C)=O)cc1S2(=O)=O,logP,3.44
c1ccc(N2CCCC2)cc1,logP,3.56
O=C(Cn1c(=O)sc2ccc(Cl)cc21)N1CCNCC1,logP,1.35
Clc1nc(Cl)c(Cl)[nH]1,logP,1.85
CCCSCS(=O)CC(CO)NC(=O)C=Cc1c(C)[nH]c(=O)[nH]c1=O (stereo not given),logP,-0.67
CC(=O)OCC1OC(n2ccnc2[N+](=O)[O-])C(OC(C)=O)C(OC(C)=O)C1OC(C)=O (stereo not given),logP,0.52
NCCCN,logP,-1.43
CC(N)(Cc1ccc(O)cc1)C(=O)O (stereo not given),logP,-1.89
O=C(O)COc1cccc(I)c1,logP,2.44
O=[N+]([O-])c1cccc(Cl)c1,logP,2.46
c1cncnc1,logP,-0.4
Nc1cccc(CO)c1,logP,-0.05
CC(=O)Nc1ccc2[nH]c(C)cc2c1,logP,1.21
C=C(C)C(=O)O,logP,0.93
NC(=O)c1ccc(O)cc1,logP,0.33
CN(C(=S)c1ccccc1)c1ccccc1,logP,3.12
CCNC(=O)c1ccoc1,logP,0.72
O=C(O)C1c2ccccc2-c2ccccc21,logP,2.8
Fc1cc(F)c(F)c(F)c1F,logP,2.53
C=CC(=O)OCC(C)C,logP,2.22
CN(C)c1cccnn1,logP,0.29
CC(CN(C)C)CN1c2ccccc2Sc2ccccc21 (stereo not given),logP,4.71
CCOC(C)=O,logP,0.73
Cc1cc2ccccc2cc1C,logP,4.4
COC(=O)C(CC(C)C)NC(C)=O (stereo not given),logP,0.84
COc1ccccc1C,logP,2.74
Cc1ccc(Cl)cc1,logP,3.33
CCCCN(N=O)C(N)=O,logP,1.04
O=NN(c1ccccc1)c1ccccc1,logP,3.13
NS(=O)(=O)c1ccc2c(c1)S(=O)(=O)NCN2,logP,-0.52
O=C(O)CCc1ccc(O)cc1,logP,1.16
O=C(Cc1ccccc1)c1ccccc1,logP,3.18
c1ccc(Nc2ccc3ccccc3c2)cc1,logP,4.38
CC(C)(C)[N+](=O)[O-],logP,1.17
O=C(OC(=O)c1ccccc1)c1ccccc1,logP,2.26
c1ccc2[se]ccc2c1,logP,3.19
O=C1NC(=O)C(c2cccnc2)N1 (stereo not given),logP,-0.95
NCc1ccccn1,logP,-0.21
CC(C)(C)c1ccccc1OCC(=O)O,logP,3.33
O=C(Nc1ccccc1)Oc1ccccc1,logP,3.3
Cc1cnnc2cc(Cl)ccc12,logP,1.98
Cc1cccc2nccnc12,logP,2.04
CN(C)c1cccc2cccnc12,logP,2.73
CC1(C)Cc2cccc(O)c2O1,logP,2.08
NCCc1c[nH]c2ccccc12,logP,1.55
NC(=O)Nc1cccc2cccnc12,logP,1.62
CC(=O)OC(OC(C)=O)c1ccccc1,logP,1.62
O=C(O)COc1ccccc1,logP,1.34
CC(C)(C)c1ccc(N)cc1,logP,2.7
CCNC(=O)CBr,logP,0.34
O=NN(Cc1ccccc1)c1ccccc1,logP,3.38
OC12CC3CC(CC(C3)C1)C2,logP,2.14
CCCOCCC,logP,2.03
NNS(=O)(=O)c1ccccc1,logP,-0.14
OCCN1CCN(CCCN2c3ccccc3Sc3ccc(Cl)cc32)CC1,logP,4.2
Nc1ncnc2nc(-c3ccccc3)[nH]c12,logP,2.31
O=CNc1ccc2[nH]ccc2c1,logP,1.07
O=S(=O)(Oc1ccccc1)c1ccccc1,logP,3.06
Clc1cccc(-c2ccccc2Cl)c1,logP,5.02
COC1=C(OC)C(=O)C(C)=C(C)C1=O,logP,1.26
FC(F)(Cl)C(F)(F)Cl,logP,2.82
CC(Oc1ccccc1)C(=O)N[C@@H]1C(=O)N2[C@@H]1SC(C)(C)[C@@H]2C(=O)O (stereo not given in full),logP,2.2
CON(C)C(=O)Nc1ccc(OCCc2ccc(C)cc2)cc1,logP,3.81
CC(C)OC(=O)c1ccccc1C(=O)OC(C)C,logP,2.83
c1ccc2c(c1)cnc1ccccc12,logP,3.48
CCN(CC)c1cc(C(=O)NN)ccn1,logP,1.12
Nc1cc([N+](=O)[O-])ccc1C(=O)O,logP,1.91
CN(C)C(N(C)C)=S(I)c1c(Cl)cccc1Cl (stereo not given),logP,0
C#C[C@]1(O)CC[C@H]2[C@@H]3CCc4cc(O)ccc4[C@H]3CC[C@@]21C,logP,3.67
Cc1cccc(C(N)=O)c1,logP,1.18
NC(=O)c1ccncc1,logP,-0.28
COc1ccc(C=C(C(C)=O)C(C)=O)c(OC)c1,logP,1.88
CCCCCc1ccccc1,logP,4.9
NC(=O)Nc1cccc(F)c1,logP,1.29
Cn1ccc2ccccc21,logP,2.72
CN(C)N=Nc1cccc(Cl)c1,logP,3.44
CCCC(=O)OC1(C(=O)CCl)C(C)CC2C3CCC4=CC(=O)C=CC4(C)C3(F)C(O)CC21C (stereo not given),logP,3.63
CCN(CC)C(=O)SCc1ccc(Cl)cc1,logP,3.4
O=c1ccc(=O)[nH][nH]1,logP,-0.84
CCOC(=O)c1ccc(NC(=O)N(C)OC)cc1,logP,2.24
CCC(=O)Nc1ccccc1,logP,1.61
COc1cccc2cccnc12,logP,1.84
CC(=O)N[C@@H](Cc1c[nH]c2ccccc12)C(=O)N[C@@H](C)C(=O)N[C@H](C(N)=O)C(C)C (Ac-Trp-Ala-Val-NH2),logP,0.36
O=C(O)Cc1ccccc1Nc1cccc(Cl)c1Cl,logP,4.86
CC1=C(N2CC2)C(=O)C(Cl)=C(N2CC2)C1=O,logP,1.2
Nc1cccc(F)c1,logP,1.3
CNC(=O)Oc1cc(C)ccc1C(C)(C)C,logP,3.14
CC(=O)NCc1ccccc1,logP,0.95
COc1ccc(C(=O)O)cc1,logP,1.96
C[C@@H](O)c1ccccc1,logP,1.42
COc1ccc2cc(C(C)C(=O)OCC(=O)N(C)CCO)ccc2c1 (stereo not given),logP,2.01
CC(C)(C)c1ccccc1,logP,4.11
C[C@]12C[C@H](O)[C@H]3[C@@H](CCC4=CC(=O)CC[C@@]43C)[C@@H]1CC[C@@H]2C(=O)CO,logP,1.94
O=[N+]([O-])C=Cc1ccccc1,logP,2.11
CCOC(=O)C(=Cc1ccc([N+](=O)[O-])cc1)C(=O)OCC,logP,3.03
CCCCCC(=O)Nc1ccccc1,logP,3.28
O=C1c2ccccc2C(=O)N1CCCCBr,logP,2.96
COc1ccc(CCN)cc1OC,logP,0.77
CC(C)N1CCOC(c2ccccc2)C1 (stereo not given),logP,2.3
Cc1ccnc(NS(=O)(=O)c2ccc(N)cc2)n1,logP,0.14
O=Cc1ccncc1,logP,0.43
Clc1ccc2cc[nH]c2c1,logP,3.25
CC(=O)NCCCOc1cccc(CN2CCCCC2)c1,logP,2.15
O=[N+]([O-])c1cccc2ncccc12,logP,1.86
S=C1CCCCCN1,logP,0.75
CC(C)OC(=O)n1cnc(CC(NC(=O)C2CCC(=O)N2)C(=O)N2CCCC2C(N)=O)c1 (stereo not given),logP,-0.8
COc1c(C)ncc(CO)c1CO,logP,-0.1
Cc1[nH]c(=O)n(C(C)(C)C)c(=O)c1Cl,logP,1.89
CS/C(C)=N/OC(=O)N(C)SN(C)C(=O)O/N=C(\C)SC,logP,1.7
COC(=O)c1cccc(N2C(=O)CCC2=O)c1,logP,0.36
O=C(Nc1ccc(Cl)cc1)c1cccnc1,logP,2.52
O=S(=O)(c1ccccc1)c1ccccc1,logP,2.4
CNC(=O)ON=CC(C)(C)SC,logP,1.13

# Reference: the OPERA property sets (Mansouri et al. 2018)
